Marks after values point to notes of the source that are not given here.
How the values were obtained:
[1] = system: auricular electroshock; experiment: Auricular electroshock (maximal electroshock); format: in vivo, Male albino Swiss mice; conditions: 14 animals, control 6/14
Protocol: Male albino Swiss mice weighing 22-24 g were used in this test. The electroshock conditions were the following: • shock duration: 3 seconds; frequence: 100; pulse amplitude: 0.6 milliseconds, current intensity: 40 milliamperes. • 400 and 800 mg/10 ml/kg of the compound under examination were administered via the intraperitoneal route 30 minutes before the electroshock.
The tests results which illustrate the number of animals preserved from death provoked by maximal electroshock are shown in the following Table 3.

[2] = system: male albino swiss mice; experiment: Tolerability test, intravenous; format: in vivo; conditions: 1.4 g/kg intravenously, in sterile saline at neutral pH
Protocol: The tolerability test was carried out on male albino swiss mice weighing 22-24 g.

[3] = system: male and female Sprague Dawley rats; experiment: Toxicity test, oral administration for 15 consecutive days; format: in vivo; conditions: 150-450-1350 mg/10 ml/kg for 15 consecutive days
Protocol: The toxicity tests were carried out on male and female Sprague Dawley rats which were orally administered ST549 at the doses of 150-450-1350 mg/10 ml/kg for 15 consecutive days; the control animals were administered the same volume of vehicle as the test animals.

[4] = system: cardiazol-induced convulsions; experiment: Anticonvulsivant test, cardiazol-induced convulsions; format: in vivo, male albino swiss (Charles River) mice
Protocol: (§1) Anticonvulsivant tests were carried out using cardiazol, strychnine and bicuculline at doses of 100 mg/10 ml/kg i.p., 0.73 mg/10 ml/kg s.c. and 2.38 mg/10 ml/kg s.c., respectively, chosen in such a way as to provoke death in 50% of the control animals.
(§2) The tests were carried out in male albino swiss (Charles River) mice weighing 22-24 g. The compound under examination, dissolved in water, was i.p. administered 30 minutes before the convulsivant agent administration.
(§3) As reference substance, 3-APS (200-400-800 mg/10 ml/kg i.p.) was used.

[5] = system: bicuculline-induced convulsions; experiment: Anticonvulsivant test, bicuculline-induced convulsions; format: in vivo, male albino swiss (Charles River) mice
Protocol: as §1, §2, §3

[6] = system: FeCl3-induced epilepsy; experiment: Antiepileptic activity test (FeCl3-induced epilepsy model); format: in vivo, Male albino Wistar rats; conditions: 500, 250 and 125 mg/kg i.v. ninety minutes following FeCl3 injection; Mann-Whitney's "U" test, P<0.05
Protocol: Male albino Wistar rats weighing 250-300 g were used. The animals, anaesthetized with Nembutal Na (30 mg/kg e.p.), were stereotactically injected in their left ventral hippocampus one microliter of 0.55 M FeC13 solution (AP =-3.2; L=5.0; H=5.5 Pellegrino and Cushman, 1971). Ten minutes following injection, recording electrodes were implanted: in both ventral hippocampi, two millimeters below the FeC13 injection site (bipolars), bilaterally on the frontoparietal cortex (monopolars). […] The epilepsy degree was assessed by calculating for each animal the number and duration in seconds of the seizures at 5-minute intervals during the whole recording span both in the hippocampus where the injection had been performed and in the contralateral cortex. Moreover, an "index of epileptization" was calculated as the mean product of seizure number times the duration of the seizures in each time interval. […]
The results thus obtained show the antiepileptic activity of the compound assessed by examining the whole phenomenon as it evolves in time via the measure (carried out with the trapezoidal rule) of the area under the curve wherein the average number of seizures and their duration is plotted versus time.

[7] = system: strychnine-induced convulsions; experiment: Anticonvulsivant test, strychnine-induced convulsions; format: in vivo, male albino swiss (Charles River) mice
Protocol: as §1, §2, §3

[8] = Stability of the solid product versus pH (deacylation); format: physicochemical; conditions: above it deacylation of the compound takes place
Description: After it had been cooled to room temperature the mixtured was filtered and the filtrate added dropwise to an Erlenmeyer flask containing about 700 milliliters of ethyl ether. A white precipitate formed which was again dissolved in methanol, filtered and re-precipitated with ether. Upon drying 7.3 g of a white, hygroscopic solid product, stable at pH <6.3 were obtained; above this […] deacylation of the compound takes place. • Elementary analysis: [formula] • NMR corresponding

[9] = Cardiazol, ST 549 i.p., equimolar to 400 mg/kg 3APS
[10] = lower dose (equimolar to 200 mg/10 ml/kg of 3-APS)
[11] = Bicuculline, ST 549 i.p., equimolar to 400 mg/kg 3APS
[12] = Strychnine, ST 549 i.p., equimolar to 400 mg/kg 3APS
[13] = Cardiazol, 3-APS 400 mg/kg i.p.
[14] = Cardiazol, 3-APS 800 mg/kg i.p.
[15] = doses of 200,400 and 800 mg/10 ml/kg i.p.
[16] = Bicuculline, 3-APS 800 mg/kg i.p.
[17] = Strychnine, 3-APS 400 mg/kg i.p.
[18] = Strychnine, 3-APS 800 mg/kg i.p.

With CC(=O)OC(CN)CS(=O)(=O)O (stereo not shown) [ST 549, 3-amino-2-acetyloxy propanesulfonic acid] the death rate ([1]; 400 mg/kg i.p. 30 minutes before the electroshock) was 3/14, the death rate ([1]; 800 mg/kg i.p. 30 minutes before the electroshock) was 3/14 and the tolerability [2] was “well tolerated”. The “general health or behaviour of the animals” value [3] was “did not affect”, the “Autopsy, main organs” value ([3]; at the end of the test) was “did not reveal either alterations or lesions to the main organs” and the “blood and urine parameters” value ([3]; with respect to the controls) was “unchanged”. For the same compound, the “% Conv.” value ([4]; Cardiazol, ST 549 i.p., dose equimolar to 200 mg/kg 3APS, 10 animals) was 100%, the “% Death rate” value ([4]; Cardiazol, ST 549 i.p., equimolar to 200 mg/kg 3APS) was 50% and the “% Conv.” value [4, 9] was 90%. The “% Death rate” value [4, 9] was 0%, the “animals preserved from cardiazol-induced death” value ([4]; dose equimolar to 400 mg/10 ml/kg i.p. of 3-APS) was 100% and the “effect on the relevant parameters (cardiazol)” value [4, 10] was “did not affect the relevant parameters”. For the same compound, the “% Death rate” value ([5]; Bicuculline, ST 549 i.p., equimolar to 200 mg/kg 3APS) was 60%, the “% Conv.” value ([5]; Bicuculline, ST 549 i.p., equimolar to 200 mg/kg 3APS, 10 animals) was 70% and the “% Conv.” value [5, 11] was 60%. For the same compound, the “% Death rate” value [5, 11] was 60%, the “decrease of bicuculline-induced death rate” value ([5]; doses equimolar to 400 and 200 mg/10 ml/kg i.p. of 3-APS) was 30% and the “animals preserved from convulsions (bicuculline)” value ([5]; doses equimolar to 400 and 200 mg/10 ml/kg i.p. of 3-APS, printed as "the same percentage") was 30%. The “area under the curve of average number of seizures and their duration versus time, compared with controls” value [6] was “statistically significant difference”, the “% Death rate” value ([7]; Strychnine, ST 549 i.p., equimolar to 200 mg/kg 3APS) was 90% and the “% Conv.” value ([7]; Strychnine, ST 549 i.p., equimolar to 200 mg/kg 3APS, 10 animals) was 100%. For the same compound, the “% Conv.” value [7, 12] was 100%, the “% Death rate” value [7, 12] was 90% and the “latency time of strychnine-induced death” value [7, 10] was “significantly increased”. For the same compound, the “latency time of strychnine-induced first convulsion” value [7, 10] was “significantly increased”.

In the case of NCCCS(=O)(=O)O [3-APS, 3-aminopropanesulfonic acid], the “% Conv.” value ([4]; Cardiazol 100 mg/10 ml/kg i.p., 3-APS 200 mg/kg i.p. 30 min before, 10 animals) is reported as 100%, the “% Death rate” value ([4]; Cardiazol, 3-APS 200 mg/kg i.p.) is reported as 50% and the “% Conv.” value [4, 13] is reported as 100%. For the same compound, the “% Death rate” value [4, 13] was 90%, the “% Conv.” value [4, 14] was 100% and the “% Death rate” value [4, 14] was 60%. For the same compound, the “preservation from cardiazole-induced death” value [4, 15] was “did not preserve animals”, the “latency time of bicuculline-induced death” value ([5]; 400 mg/10 ml/kg i.p.) was “significantly increased” and the “latency time of the bicuculline-induced first convulsion” value ([5]; 800 mg/kg i.p.) was “significantly increased”. For the same compound, the “% Conv.” value ([5]; Bicuculline 2.38 mg/10 ml/kg s.c., 3-APS 200 mg/kg i.p. 30 min before, 10 animals) was 100%, the “% Death rate” value ([5]; Bicuculline, 3-APS 200 mg/kg i.p.) was 100% and the “% Death rate” value ([5]; Bicuculline, 3-APS 400 mg/kg i.p.) was 75%. The “% Conv.” value ([5]; Bicuculline, 3-APS 400 mg/kg i.p., 8 animals per group) was 100* %, the “% Conv.” value [5, 16] was 70% and the “% Death rate” value [5, 16] was 40%. The “preservation from bicuculline-induced death” value [5, 15] was “did not preserve animals”, the “% Conv.” value ([7]; Strychnine 0.73 mg/10 ml/kg s.c., 3-APS 200 mg/kg i.p. 30 min before, 10 animals) was 100% and the “% Death rate” value ([7]; Strychnine, 3-APS 200 mg/kg i.p.) was 90%. The “% Conv.” value [7, 17] was 100%, the “% Death rate” value [7, 17] was 100% and the “% Conv.” value [7, 18] was 100%. For the same compound, the “% Death rate” value [7, 18] was 90% and the “preservation from strychnine-induced death” value [7, 15] was “did not preserve animals”.

For CCCC(=O)OC(CN)CS(=O)(=O)O.Cl (stereo not shown) [ST 477, 3-amino-2-butanoyloxypropanesulfonic acid hydrochloride], the “stable at pH” value [8] was < 6.3.

Reference: patent publication EP0309421A2, “O-alkanoyl derivatives of 3-amino-2-hydroxypropanesulfonic acid having anticonvulsivant activity and pharmaceutical compositions containing same for the therapeutical treatment of epilepsy” (SIGMA TAU Industrie Farmaceutiche Riunite S.p.A., priority 1987, dated 1989)
